Key:
Assay type in all cases: in vivo
[1] = system: CD-1 mice; assay: Formalin test in mice; settings: 3 mg/kg, i.p., 20 min before formalin; n=5
Experimental: Formalin test in mice. Male CD-1 mice 6-8 weeks (Envigo, Italy), were housed under controlled conditions (12 h light/12 h dark cycle; temperature 20-22 C; humidity 55-60%) with chow and tap water available ad libitum. All surgeries and experimental procedures were approved by the Animal Ethics Committee of University of Campania “L. Vanvitelli” (Naples). Animal care was in compliance with Italian (D.L. 116/92) and European Commission (O.J. of E.C. L358/1 18/12/86) regulations on the protection of laboratory animals. All efforts were made to minimize animal suffering and to reduce the number of animals used. All the experiments were performed in a randomized manner by the same operator blind to pharmacological treatments. Mice weighing 28-32 g were used after 1 week-acclimation period and received formalin (1.25% in saline, 30 μL) in the dorsal surface of one side of the hind-paw. Each mouse, randomly assigned to one of the experimental groups (n=5), was placed in a plexiglass cage and allowed to move freely for 15-20 min. A mirror was placed at a 45° angle under the cage to allow full view of the hind-paws. Lifting, favoring, licking, shaking and flinching of the injected paw were recorded as nocifensive behavior.^61 The total time of the nociceptive response was measured every 5 min for 60 minutes and expressed in min (mean±SEM). Mice received vehicle (0.5% DMSO in saline) or different doses of Δ^9-THCB (2, 3 and 5 mg/kg, i.p.) 20 min before formalin injection alone or in combination with AM251 (0.5 mg/kg, i.p.) or AM630 (1 mg/kg, i.p.). The antagonists were administered 10 min before drugs injection.
Statistics for in vivo experiments. Data are represented as means±standard error of the mean (S.E.M). Statistical analysis of the data was performed by analysis of variance two-way ANOVA followed by Bonferroni post hoc or Dunnett's multiple comparison test. All statistical analyses were performed by using GraphPAD software (San Diego, California). Differences were considered significant at p<0.05.

[2] = system: C57BL6/J mice; assay: Tetrad: open field test (spontaneous/motor activity); settings: mean±SEM
Experimental: (§1) Mice (n=4) were treated with Δ^9-THCB (10 and 20 mg/kg) or vehicle (0.9% saline and 0.05% DMSO) by intraperitoneal (i.p.) administration. Mice were evaluated for hypomotility (open field test), hypothermia (body temperature test), antinociceptive (hot plate test), and cataleptic effects (bar test), using the tetrad tests as described in the protocol by Metna-Laurent M. et al.^62 Statistical analysis was performed using the Kruskall-Wallis test and Dunn's post hoc tests.
Open field test. The open field test (OFT) was performed 30 min after drug or vehicle injection. The apparatus was cleaned before each test using a 70% EtOH solution. After randomly assigning naïve mice to a treatment group, the operator started to record animal behaviors, which were stored and analyzed using an automated behavioral tracking system (Smart v3.0, Panlab Harvard Apparatus). Mice were placed in an OFT arena (1×w×h: 44 cm×44 cm×30 cm), and ambulatory activity (total distance travelled in cm), was recorded for 15 min and analyzed.
(§2) Male C57BL6/J mice (7 weeks old; n=5) were treated with Δ^9-THCP (10, 5 and 2.5 mg/kg) or vehicle (1:1:18; ethanol:Kolliphor EL:0.9% saline) by i.p. administration. Mice were evaluated for hypomotility (open field test), hypothermia (body temperature), antinociceptive (hot plate test), and cataleptic (bar test) effects, using the tetrad tests^58. Statistical analysis was performed using the Kruskall-Wallis test and Dunn's post hoc tests.
Openfield. The open field test was used for the evaluation of motor activity. Behavioral assays were performed 30 min after drug (or vehicle) injection. The apparatus was cleaned before each behavioral session by solution of 70% ethanol. Naïve mice were randomly assigned to a treatment group. Behaviors were recorded, stored, and analyzed using an automated behavioral tracking system (Smart v3.0, Panlab Harvard Apparatus). Mice were placed in an OFT arena (1×w×h: 25 cm×25 cm), and ambulatory activity (total distance travelled in centimeter), were recorded for 15 minutes and analyzed.

[3] = system: C57BL6/J mice; assay: Tetrad: hot plate test (analgesia); settings: 52° C., 85 min after administration, mean±SEM
Experimental: as §1
Hotplate test. Each mouse was placed on a hot plate (Ugo Basile), which was kept at a constant temperature of 52° C. The nociceptive response (NR) was recorded as characteristic actions of the mouse like licking of the hind paws, as well as jumping. The latency to the NR was measured in sec 85 minutes after drug or vehicle administration. A 30 or 60 sec cut-off time was used in order to prevent tissue damage.
as §2
Hot plate. Changes in nociception were evaluated by the hot plate test. On the day of experiment each mouse was placed on a hot plate (Ugo Basiele) at a constant temperature of 52° C. Licking of the hind paws, as well as jumping, were considered as a nociceptive response (NR) and the latency was measured in seconds 85 minutes after drug or vehicle administration. The latency to the NR was recorded and a 30 or 60 s cut-off time was used in order to prevent tissue damage.

| SMILES | nociceptive response in formalin test (first phase 0-7 min, second phase 15-60 min) [1] | open field: distance travelled ([2]; Δ^9-THCB 10 mg/kg i.p., 30 min after injection, 15 min, n=4, vehicle 3283) [cm] | open field: distance travelled ([2]; Δ^9-THCB 20 mg/kg i.p., 30 min after injection, 15 min, n=4, vehicle 3283) [cm] | hot plate: latency to nociceptive response ([3]; Δ^9-THCB 10 mg/kg i.p., n=4, vehicle 10.15) [s] | hot plate: latency to nociceptive response ([3]; Δ^9-THCB 20 mg/kg i.p., n=4, vehicle 10.15) [s] | open field: distance travelled ([2]; Δ^9-THCP 2.5 mg/kg i.p., n=5, vehicle 6888) [cm] | open field: distance travelled ([2]; Δ^9-THCP 5 mg/kg i.p., n=5, vehicle 6888) [cm] | open field: distance travelled ([2]; Δ^9-THCP 10 mg/kg i.p., n=5, vehicle 6888) [cm] | hot plate: latency to nociceptive response ([3]; Δ^9-THCP 2.5 mg/kg i.p., not statistically significant, n=5, vehicle 19.20) [s] | hot plate: latency to nociceptive response ([3]; Δ^9-THCP 5 mg/kg i.p., n=5, vehicle 19.20) [s] | hot plate: latency to nociceptive response ([3]; Δ^9-THCP 10 mg/kg i.p., n=5, vehicle 19.20) [s] |
| --- | --- | --- | --- | --- | --- | --- | --- | --- | --- | --- | --- |
| CCCCc1cc(O)c2c(c1)OC(C)(C)[C@@H]1CCC(C)=C[C@@H]21 [Δ^9-THCB, (6aR,10aR)-3-butyl-6,6,9-trimethyl-6a,7,8,10a-tetrahydro-6H-benzo[c]chromen-1-ol] | reduced both first and second phase of formalin test | 3220 | 3591 | 7.94 | 17.50 |  |  |  |  |  |  |
| CCCCCCCc1cc(O)c2c(c1)OC(C)(C)[C@@H]1CCC(C)=C[C@@H]21 [Δ^9-THCP, (6aR,10aR)-3-heptyl-6,6,9-trimethyl-6a,7,8,10a-tetrahydro-6H-benzo[c]chromen-1-ol] |  |  |  |  |  | 4072 | 127.5 | 166.8 | 40.22 | 54.38 | 57.0 |

Reference: US12606508B2, “Cannabis extracts and uses thereof” (priority 2020, dated 2026)
